Test: Insecticidal evaluation of fraction 1 and fraction 3 (resolved isomers)
Format: in vivo
Conditions: fraction 1 (92.9% isomer A) against fraction 3
Procedure: (±)-1,1,1-trifluoro-2-(4-ethoxyphenyl)-3-(3-phenoxybenzyloxy)propane was resolved by high pressure liquid chromatography, using a Pirkle type 1A column (25 cm×4.9 mm) at -20° C., and n-hexane containing 1% by volume chloroform as eluent, at a flow rate of 0.7 cm^3 /minute. Elution was monitored using a UV detector at […]. Two isomers were detected:isomer A (retention time ca. 51 minutes) and isomer B (retention time ca. 54.6 minutes). A total of three fractions were collected.

With `CCOc1ccc(C(COCc2cccc(Oc3ccccc3)c2)C(F)(F)F)cc1` (single isomer, unassigned) [isomer A, (+)-1,1,1-trifluoro-2-(4-ethoxyphenyl)-3-(3-p-henoxybenzyloxy)-propane] the “insecticidal activity of isomer A relative to isomer B” value was “substantially more active than isomer B”.
